Laboratory results taken from US7271187B2, “Compositions and methods for promoting tissue regeneration” (priority 2000, dated 2007).

Legend:
[1] = test system: mixed embryonic day 18 (E18) rat neural cultures; experiment: Embryonic day 18 rat cortical culture, glutamate-killed neurons, immunostaining for neuronal markers; format: cell-based
Excerpt: The method of the invention is exemplified by a first embodiment wherein administration of a single in vitro dose of N-[4-[(4-fluorophenyl)sulfonyl]phenyl]-acetamide, a compound according to Formula (II), to a population of mixed embryonic day 18 (“E18”) rat neural cultures without living neurons results in a protein expression pattern within the culture that is indicative of development of neuronal cells from progenitor cells. The embryonic neural cultures are first subjected to glutamate excitotoxic exposure sufficient to result in neuronal cell death prior to administration of the compound. Cultures obtained from E18 rat embryos are allowed to mature in vitro for 10 days at which time they are treated with […] glutamate to kill the neurons. Eight days later, cultures are treated with a range of doses of the compound N-[4-[(4-fluorophenyl)sulfonyl]phenyl]acetamide from 0.01 μg/ml to 100 μg/ml. In comparing control cultures and drug treated cultures, an antigenic marker for neuronal progenitor cells, e-NCAM (as detected by immunohistochemical methods), is elevated one week after treatment of the culture with N-[4-[(4-fluorophenyl)sulfonyl]phenyl]-acetamide. […] In contrast, few cells in untreated cultures are observed expressing MAP-II immunoreactivity at 3 weeks post-treatment. […] In control cultures, few cells are observed expressing intense MAP-II and beta-tubulin immunoreactivity. […] This expression pattern represents the normal sequence of events as neuronal cells develop from progenitor cells.
CNS tissue was harvested from embryonic day 18 (E-18) rat pups (Taconic Labs) using sterile technique and was stored in ice cold Hank's Balanced Salt Solution (HBSS-Gibco). Brains were removed from the cranium of 10 embryos, and the meninges removed to expose the underlying cortex. Cortex was isolated from the rest of the brain and stored in ice cold HBSS. After all material was collected, the tissue was minced and trypsinized using 0.1% trypsin (Sigma) for 30 minutes at 37° C. Trypsin action was inhibited by adding 0.5 mg/ml soybean trypsin inhibitor (Gibco). Tissue was rinsed with HBSS and triturated using a flame narrowed Pasteur pipette coated with fetal bovine serum (FBS—Media Tech).
Dissociated cells were counted and plated into 24 well cluster plates in DMEM (MediaTech) plus 10% FBS (Media Tech) at a density of 5×10^5 cells per well. Twenty-four well cluster plates were coated with poly-D-lysine prior to adding cells. Cultures were maintained for 10 days in vitro using a 3-4 day feeding schedule where half the media was removed and replaced with fresh media.
On in vitro day (IVD) 10, glutamate (Gibco) (110 μl of 20 mM added to wells that contained 1 ml of media) was add to all wells except control wells to a final concentration 2 mM. Control wells were fed an equal amount of media minus the L-glutamate. Cultures were maintained for an additional 9 days using a 3-4 feeding schedule. On IVD-18, media was removed and replaced with Neurobasal (Gibco)+B27 supplements (Gibco) and L-glutamine (Media Tech). The next day, IVD-19, N-[4-[(4-fluorophenyl)sulfonyl]phenyl]acetamide dissolved in 2-hydroxypropyl-β-cyclodextrin (Sigma) was added to cultures such that the final concentrations of the compound were either 100 μg/ml, 10 μg/ml, 1 μg/ml and 0.1 μg/ml or 10 μg/ml, 1 μg/ml 0.1 μg/ml and 0.01 μg/ml. Two sets of control wells were included in each experiment. One set of glutamate treated wells received an equal dose of 2-hydroxypropyl-β-cyclodextrin but without N-[4-[(4-fluorophenyl)sulfonyl]phenyl]acetamide. […] After it became apparent that the optimal dose was approximately 0.1 μg/ml to 1 μg/ml N-[4-[(4-fluorophenyl)sulfonyl]phenyl]acetamide, the concentration of drug added to the control wells was reduced to 1 μg/ml.
Cultures were maintained for up to an additional 10 weeks. […]

[2] = test system: spinal cord of an injured recipient animal; experiment: Bone marrow cell implantation at spinal cord injury site with BrdU labelling; format: in vivo, rat; conditions: 12 weeks after implantation of bone marrow cells from orally treated donor
Method: In preferred embodiments, the invention relates to regenerating nerve tissue in vivo. Methods of the invention include administering a therapeutically effective dose of a composition of the invention to a first mammal in need of neural regeneration. In some embodiments, a compound of Formula (I) or Formula (II) is administered, preferably orally administered, to a mammal in need of tissue regeneration, preferably neural tissue regeneration. In some embodiments, methods of the invention comprise administering a compound of Formula (I) or Formula (II) to a first mammal, harvesting cells from the first mammal after administration of the compound and subsequently delivering the harvested cells locally at a site where increased neural expression or increased neural regeneration is needed, wherein the injury site can be in the first mammal or in a second mammal. In some embodiments, the compositions of the invention can be administered intralesionally. Preferably, the harvested cells are from any type of stem cell, for example bone marrow cells. For example, bone marrow cells can be collected from a donor animal (e.g., a rat) within two weeks, preferably within three to seven days, after oral administration of N-[4-[(4-fluorophenyl)sulfonyl]phenyl]acetamide in a pharmaceutically acceptable carrier to the donor animal. […]

[3] = 4 weeks post treatment, vs control cultures

CC(=O)Nc1ccc(S(=O)(=O)c2ccc(F)cc2)cc1 [N-[4-[(4-fluorophenyl)sulfonyl]phenyl]acetamide]
MAP-II expression ([1]; 3 weeks post treatment, vs untreated cultures): Low levels of MAP-II expression are also detected at 3 weeks post treatment in a large number of cells | MAP-II immunoreactivity [1, 3]: a large number of cells treated with the compound can be observed expressing intense MAP-II and beta-tubulin immunoreactivity | beta-tubulin immunoreactivity [1, 3]: a large number of cells treated with the compound can be observed expressing intense MAP-II and beta-tubulin immunoreactivity | phosphorylated neurofilament protein (NF-PO4) immunoreactivity ([1]; 6 weeks post treatment, vs untreated cultures): can be observed in numerous neurites | e-NCAM expression (immunohistochemical) ([1]; one week after treatment, drug treated vs control cultures, 0.01 μg/ml to 100 μg/ml): elevated | expression of Low affinity Neuron Growth Factor Receptor ([1]; ten weeks post treatment): show expression of the Low affinity Neuron Growth Factor Receptor | beta-tubulin expression ([1]; three weeks post treatment, vs untreated control cultures): elevated levels of beta-tubulin expression are detected in large numbers of cells | BrdU incorporation and expression of nestin, beta-tubulin and GFAP in spinal cord tissue [2]: shows incorporation of BrdU in cell nuclei, as well as expression of nestin, beta-tubulin and GFAP
